The values below are quoted from earlier work in PubChem BioAssay AID1259409 (Chemical Carcinogenesis Research Information System (CCRIS), 2018).

For this series, the system named is rodent chemically induced tumor inhibition, incidence and multiplicity. As to the kind of experiment: CCRIS tumor inhibitor studies.

Take `C=Cc1c(C)c2[n-]c1=CC1=NC(=CC3=C(C)C(=C([O-])[O-])C(=N3)C(CC(=O)[O-])=C3N=C(C=2)C(C)C3CCC(=O)[O-])C(CC)=C1C.[Cu+2].[Na+].[Na+].[Na+]` (stereo not drawn): the “tumour outcome (control, treated, inhibition, significance)” value is on record as 6/10 (60%), 6/13 (46%), 23%, not significant (Carcinogen: 2,2'-DIHYDROXY-DI-N-PROPYLNITROSAMINE, 53609-64-6, N-ETHYL-N-HYDROXYETHYLNITROSAMINE, 13147-25-6, 3,2'-DIMETHYL-1,4-, Carcinogen: 2,2'-DIHYDROXY-DI-N-PROPYLNITROSAMINE, 53609-64-6, N-ETHYL-N-HYDROXYETHYLNITROSAMINE, 13147-25-6, 3,2'-DIMETHYL-1,4-, Dose [Inhibitor]: 0, 1% IN DIET FOR 4 WK BEGINNING 1 D PRIOR TO FIRST CARCINOGEN DOSE (STUDY DURATION: 36 WK), Route [Inhibitor]: ORAL, Species: RAT, Strain/Sex: F344/MALE, Target Tissue: Type of Lesion: KIDNEY: ADENOMA, Dose [Carcinogen]: 1000 MG/KG BW DHPN TWICE, 1500 MG/KG EHEN TWICE, 75 MG/KG BW DMAB 3 TIMES, SEQUENTIALLY OVER 3 WK, Promoter: NONE USED); 5/10 (50%), 8/13 (62%), -24%, not significant (Carcinogen: 2,2'-DIHYDROXY-DI-N-PROPYLNITROSAMINE, 53609-64-6, N-ETHYL-N-HYDROXYETHYLNITROSAMINE, 13147-25-6, 3,2'-DIMETHYL-1,4-, Carcinogen: 2,2'-DIHYDROXY-DI-N-PROPYLNITROSAMINE, 53609-64-6, N-ETHYL-N-HYDROXYETHYLNITROSAMINE, 13147-25-6, 3,2'-DIMETHYL-1,4-, Dose [Inhibitor]: 0, 1% IN DIET FOR 4 WK BEGINNING 1 D PRIOR TO FIRST CARCINOGEN DOSE (STUDY DURATION: 36 WK), Route [Inhibitor]: ORAL, Species: RAT, Strain/Sex: F344/MALE, Target Tissue: Type of Lesion: LUNG: ADENOMA, Dose [Carcinogen]: 1000 MG/KG BW DHPN TWICE, 1500 MG/KG EHEN TWICE, 75 MG/KG BW DMAB 3 TIMES, SEQUENTIALLY OVER 3 WK, Promoter: NONE USED); 2/20 (10%), 4/20 (20%), -100%, not significant (Carcinogen: 2-AMINO-1-METHYL-6-PHENYLIMIDAZO[4,5-B]PYRIDINE, 105650-23-5, Dose [Inhibitor]: 0, 1% IN DIET FOR 54 WK (STUDY DURATION: 54 WK), Route [Inhibitor]: ORAL, Species: RAT, Strain/Sex: F344/FEMALE, Target Tissue: Type of Lesion: COLON: ADENOMA, Dose [Carcinogen]: 0.02% IN DIET FOR 54 WK, Promoter: NONE USED); 8/20 (40%), 3/20 (15%), 63%, not significant (Carcinogen: 2-AMINO-1-METHYL-6-PHENYLIMIDAZO[4,5-B]PYRIDINE, 105650-23-5, Dose [Inhibitor]: 0, 1% IN DIET FOR 54 WK (STUDY DURATION: 54 WK), Route [Inhibitor]: ORAL, Species: RAT, Strain/Sex: F344/FEMALE, Target Tissue: Type of Lesion: MAMMARY GLAND: ADENOCARCINOMA, Dose [Carcinogen]: 0.02% IN DIET FOR 54 WK, Promoter: NONE USED); 2/20 (10%), 0/20 (0%), 100%, not significant (Carcinogen: 2-AMINO-1-METHYL-6-PHENYLIMIDAZO[4,5-B]PYRIDINE, 105650-23-5, Dose [Inhibitor]: 0, 1% IN DIET FOR 54 WK (STUDY DURATION: 54 WK), Route [Inhibitor]: ORAL, Species: RAT, Strain/Sex: F344/FEMALE, Target Tissue: Type of Lesion: MAMMARY GLAND: FIBROADENOMA, Dose [Carcinogen]: 0.02% IN DIET FOR 54 WK, Promoter: NONE USED); 100%, 87%, 13%, not significant (Carcinogen: 7,12-DIMETHYLBENZ[A]ANTHRACENE [57-97-6], Dose [Inhibitor]: 0.5% IN 0.2 ML DMSO/ACETONE (15:85) 1 D PRIOR TO CARCINOGEN DOSE (STUDY DURATION: 31 WK), Route [Inhibitor]: DERMAL, Species: MOUSE, Strain/Sex: ICR/FEMALE, Target Tissue: Type of Lesion: SKIN: TUMOR, Dose [Carcinogen]: 0.2 UMOL ONCE (STUDY DURATION: 31 WK), Promoter: 12-O-TETRADECANOYLPHORBOL-13-ACETATE [16561-29-8]). The “tumour outcome (control, treated, inhibition, significance)” value reads like this: (Carcinogen: 7,12-DIMETHYLBENZ[A]ANTHRACENE [57-97-6], Dose [Inhibitor]: 0.5% IN 0.2 ML DMSO/ACETONE (15:85) 1 D PRIOR TO CARCINOGEN DOSE AND 10 MIN PRIOR TO EACH PROMOTER DOSE FOR 30 WK (STUDY, Route [Inhibitor]: DERMAL, Species: MOUSE, Strain/Sex: ICR/FEMALE, Target Tissue: Type of Lesion: SKIN: TUMOR, Dose [Carcinogen]: 0.2 UMOL ONCE (STUDY DURATION: 31 WK), Promoter: 12-O-TETRADECANOYLPHORBOL-13-ACETATE [16561-29-8]) 100%, 27%, 73%, p<0.005; (Carcinogen: 7,12-DIMETHYLBENZ[A]ANTHRACENE [57-97-6], Dose [Inhibitor]: 0.5% IN 0.2 ML DMSO/ACETONE (15:85) 10 MIN PRIOR TO EACH PROMOTER DOSE FOR 30 WK (STUDY DURATION: 30 WK), Route [Inhibitor]: DERMAL, Species: MOUSE, Strain/Sex: ICR/FEMALE, Target Tissue: Type of Lesion: SKIN: TUMOR, Dose [Carcinogen]: 0.2 UMOL ONCE (STUDY DURATION: 30 WK), Promoter: 12-O-TETRADECANOYLPHORBOL-13-ACETATE [16561-29-8]) 100%, 40%, 60%, p<0.005; (Carcinogen: BENZO[A]PYRENE-7,8-DIHYDRODIOL-9,10-EPOXIDE, 58917-67-2, Dose [Inhibitor]: 0, 15 MG/KG BW ONCE 30 MIN PRIOR TO CARCINOGEN DOSE (STUDY DURATION: 24 WK), Route [Inhibitor]: GAVAGE, Species: MOUSE, Strain/Sex: ICR/FEMALE, Target Tissue: Type of Lesion: SKIN: PAPILLOMA, Dose [Carcinogen]: 0.1 UMOL ONCE, Promoter: 12-O-TETRADECANOYLPHORBOL-13-ACETATE, 16561-29-8) 98%, 70%, 29%, not calculated; (Carcinogen: BENZO[A]PYRENE, 50-32-8, Dose [Inhibitor]: 0, 15 MG/KG BW ONCE 30 MIN PRIOR TO CARCINOGEN DOSE (STUDY DURATION: 40 WK), Route [Inhibitor]: GAVAGE, Species: MOUSE, Strain/Sex: ICR/FEMALE, Target Tissue: Type of Lesion: SKIN: PAPILLOMA, Dose [Carcinogen]: 0.3 UMOL ONCE, Promoter: 12-O-TETRADECANOYLPHORBOL-13-ACETATE, 16561-29-8) 97%, 78%, 20%, not calculated; (Carcinogen: DIETHYLNITROSAMINE, 55-18-5, Dose [Inhibitor]: 0, 2000 PPM IN DIET FOR 4 WK DURING INITIATION (STUDY DURATION: 24 WK), Route [Inhibitor]: ORAL, Species: RAT, Strain/Sex: F344/MALE, Target Tissue: Type of Lesion: LIVER: ADENOMA, Dose [Carcinogen]: 100 MG/KG BW 1/WK FOR 3 WK, Promoter: PHENOBARBITAL, 50-06-6) 95%, 70%, 26%, p<0.05; (Carcinogen: DIETHYLNITROSAMINE, 55-18-5, Dose [Inhibitor]: 0, 2000 PPM IN DIET FOR 4 WK DURING INITIATION (STUDY DURATION: 24 WK), Route [Inhibitor]: ORAL, Species: RAT, Strain/Sex: F344/MALE, Target Tissue: Type of Lesion: LIVER: CARCINOMA, Dose [Carcinogen]: 100 MG/KG BW 1/WK FOR 3 WK, Promoter: PHENOBARBITAL, 50-06-6) 70%, 60%, 14%, not significant. The “tumour outcome (control, treated, inhibition, significance)” value is on record as 13%, 13%, 0%, not significant (Carcinogen: DIETHYLNITROSAMINE, 55-18-5, Dose [Inhibitor]: 0, 2000 PPM IN DIET FOR 20 WK BEGINNING 1 WK POST CARCINOGEN TREATMENT (STUDY DURATION: 24 WK), Route [Inhibitor]: ORAL, Species: RAT, Strain/Sex: F344/MALE, Target Tissue: Type of Lesion: LIVER: ADENOMA, Dose [Carcinogen]: 100 MG/KG BW 1/WK FOR 3 WK, Promoter: NONE USED); 95%, 63%, 34%, p<0.02 (Carcinogen: DIETHYLNITROSAMINE, 55-18-5, Dose [Inhibitor]: 0, 2000 PPM IN DIET FOR 20 WK BEGINNING 1 WK POST CARCINOGEN TREATMENT (STUDY DURATION: 24 WK), Route [Inhibitor]: ORAL, Species: RAT, Strain/Sex: F344/MALE, Target Tissue: Type of Lesion: LIVER: ADENOMA, Dose [Carcinogen]: 100 MG/KG BW 1/WK FOR 3 WK, Promoter: PHENOBARBITAL, 50-06-6); 29%, 31%, -7%, not significant (Carcinogen: DIETHYLNITROSAMINE, 55-18-5, Dose [Inhibitor]: 0, 2000 PPM IN DIET FOR 20 WK BEGINNING 1 WK POST CARCINOGEN TREATMENT (STUDY DURATION: 24 WK), Route [Inhibitor]: ORAL, Species: RAT, Strain/Sex: F344/MALE, Target Tissue: Type of Lesion: LIVER: CARCINOMA, Dose [Carcinogen]: 100 MG/KG BW 1/WK FOR 3 WK, Promoter: NONE USED); 70%, 63%, 10%, not significant (Carcinogen: DIETHYLNITROSAMINE, 55-18-5, Dose [Inhibitor]: 0, 2000 PPM IN DIET FOR 20 WK BEGINNING 1 WK POST CARCINOGEN TREATMENT (STUDY DURATION: 24 WK), Route [Inhibitor]: ORAL, Species: RAT, Strain/Sex: F344/MALE, Target Tissue: Type of Lesion: LIVER: CARCINOMA, Dose [Carcinogen]: 100 MG/KG BW 1/WK FOR 3 WK, Promoter: PHENOBARBITAL, 50-06-6); 16%, 12%, 25%, p=0.29 (Dose [Inhibitor]: 0, 500 PPM IN DIET FOR 2 WK ADMINISTERED WITH CARCINOGEN (STUDY DURATION: 9 MO), Route [Inhibitor]: ORAL, Species: FISH, Strain/Sex: RAINBOW TROUT/MALE, FEMALE, Target Tissue: Type of Lesion: LIVER: TUMOR, Promoter: NONE USED); 7%, 3%, 57%, p=0.04 (Dose [Inhibitor]: 0, 500 PPM IN DIET FOR 2 WK ADMINISTERED WITH CARCINOGEN (STUDY DURATION: 9 Mo), Route [Inhibitor]: ORAL, Species: FISH, Strain/Sex: RAINBOW TROUT/MALE, FEMALE, Target Tissue: Type of Lesion: LIVER: TUMOR, Promoter: NONE USED).
